According to the supplement of paper PMC10307832:

Columns and labels:
Test in all cases: relative viability (nuclei count vs DMSO), 5 days (fraction); higher = more cells survive
Quizartinib = compound: CC(C)(C)c1cc(NC(=O)Nc2ccc(-c3cn4c(n3)sc3cc(OCCN5CCOCC5)ccc34)cc2)no1 [Quizartinib]
Summary of the method: (§1)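 Cells of lung cancer lines were placed in 1536-well plates and kept overnight at 37 °C. Pinning then delivered five library-drug doses (not always all listed), spaced by √10, onto plates anchored with vehicle, and the cells were left 5 days without changing medium. One step fixed, permeabilised and stained them with Hoechst, and MetaXpress counted nuclei in 4× images. Viability, as a median over plates, is treated-well nuclei divided by vehicle-well nuclei, with acceptance only at control CV below 25% and at least one doubling.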

YM155 = compound: COCC[n+]1c2c(n(Cc3cnccn3)c1C)C(=O)c1ccccc1C2=O [YM155]
Summary of the method: as §1

Quizartinib + Luminespib = compound: CC(C)(C)c1cc(NC(=O)Nc2ccc(-c3cn4c(n3)sc3cc(OCCN5CCOCC5)ccc34)cc2)no1 [Quizartinib] + CCNC(=O)c1noc(-c2cc(C(C)C)c(O)cc2O)c1-c1ccc(CN2CCOCC2)cc1 [Luminespib] (partner 0.01 µM)
Summary of the method: (§2)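 Lung cancer cell lines were pin-tool dosed in 1536-well plates on the day after seeding, with either a lone drug or a fixed anchor-drug dose plus five library-drug doses (not always all listed) in √10 steps. Nuclei were counted on 4× images after 5 days. Relative viability is the ratio of treated-well to vehicle-well nuclei counts, with each value a median of duplicate plates.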

Quizartinib + Foretinib = compound: CC(C)(C)c1cc(NC(=O)Nc2ccc(-c3cn4c(n3)sc3cc(OCCN5CCOCC5)ccc34)cc2)no1 [Quizartinib] + COc1cc2c(Oc3ccc(NC(=O)C4(C(=O)Nc5ccc(F)cc5)CC4)cc3F)ccnc2cc1OCCCN1CCOCC1 [Foretinib] (partner 0.25 µM)
Summary of the method: as §2

Quizartinib + OSI-027 = compound: CC(C)(C)c1cc(NC(=O)Nc2ccc(-c3cn4c(n3)sc3cc(OCCN5CCOCC5)ccc34)cc2)no1 [Quizartinib] + COc1cccc2cc(-c3nc([C@H]4CC[C@H](C(=O)O)CC4)n4ncnc(N)c34)[nH]c12 [OSI-027] (partner 0.5 µM)
Summary of the method: as §2

Quizartinib + Tozasertib = compound: CC(C)(C)c1cc(NC(=O)Nc2ccc(-c3cn4c(n3)sc3cc(OCCN5CCOCC5)ccc34)cc2)no1 [Quizartinib] + Cc1cc(Nc2cc(N3CCN(C)CC3)nc(Sc3ccc(NC(=O)C4CC4)cc3)n2)n[nH]1 [Tozasertib] (partner 0.1 µM)
Summary of the method: as §2

Quizartinib + Dasatinib = compound: CC(C)(C)c1cc(NC(=O)Nc2ccc(-c3cn4c(n3)sc3cc(OCCN5CCOCC5)ccc34)cc2)no1 [Quizartinib] + Cc1nc(Nc2ncc(C(=O)Nc3c(C)cccc3Cl)s2)cc(N2CCN(CCO)CC2)n1 [Dasatinib] (partner 0.075 µM)
Summary of the method: as §2

Quizartinib + Phenformin = compound: CC(C)(C)c1cc(NC(=O)Nc2ccc(-c3cn4c(n3)sc3cc(OCCN5CCOCC5)ccc34)cc2)no1 [Quizartinib] + N=C(N)NC(=N)NCCc1ccccc1 [Phenformin] (partner 250 µM)
Summary of the method: as §2

YM155 + Luminespib = compound: COCC[n+]1c2c(n(Cc3cnccn3)c1C)C(=O)c1ccccc1C2=O [YM155] + CCNC(=O)c1noc(-c2cc(C(C)C)c(O)cc2O)c1-c1ccc(CN2CCOCC2)cc1 [Luminespib] (partner 0.01 µM)
Summary of the method: as §2

YM155 + Foretinib = compound: COCC[n+]1c2c(n(Cc3cnccn3)c1C)C(=O)c1ccccc1C2=O [YM155] + COc1cc2c(Oc3ccc(NC(=O)C4(C(=O)Nc5ccc(F)cc5)CC4)cc3F)ccnc2cc1OCCCN1CCOCC1 [Foretinib] (partner 0.25 µM)
Summary of the method: as §2

YM155 + OSI-027 = compound: COCC[n+]1c2c(n(Cc3cnccn3)c1C)C(=O)c1ccccc1C2=O [YM155] + COc1cccc2cc(-c3nc([C@H]4CC[C@H](C(=O)O)CC4)n4ncnc(N)c34)[nH]c12 [OSI-027] (partner 0.5 µM)
Summary of the method: as §2

YM155 + Tozasertib = compound: COCC[n+]1c2c(n(Cc3cnccn3)c1C)C(=O)c1ccccc1C2=O [YM155] + Cc1cc(Nc2cc(N3CCN(C)CC3)nc(Sc3ccc(NC(=O)C4CC4)cc3)n2)n[nH]1 [Tozasertib] (partner 0.1 µM)
Summary of the method: as §2

YM155 + Dasatinib = compound: COCC[n+]1c2c(n(Cc3cnccn3)c1C)C(=O)c1ccccc1C2=O [YM155] + Cc1nc(Nc2ncc(C(=O)Nc3c(C)cccc3Cl)s2)cc(N2CCN(CCO)CC2)n1 [Dasatinib] (partner 0.075 µM)
Summary of the method: as §2

YM155 + Phenformin = compound: COCC[n+]1c2c(n(Cc3cnccn3)c1C)C(=O)c1ccccc1C2=O [YM155] + N=C(N)NC(=N)NCCc1ccccc1 [Phenformin] (partner 250 µM)
Summary of the method: as §2

NCI-H1623
relative viability (Quizartinib; 0.001 µM): 0.845 | relative viability (Quizartinib; 0.003162 µM): 1.12 | relative viability (Quizartinib; 0.01 µM): 0.905 | relative viability (Quizartinib; 0.03162 µM): 0.977 | relative viability (Quizartinib; 0.1 µM): 1.09 | relative viability (YM155; 0.002 µM): 0.934 | relative viability (YM155; 0.006325 µM): 1.29 | relative viability (YM155; 0.02 µM): 1.02 | relative viability (YM155; 0.06325 µM): 1.02 | relative viability (Quizartinib + Luminespib; first compound 0.001 µM): 0.38 | relative viability (Quizartinib + Luminespib; first compound 0.003162 µM): 0.564 | relative viability (Quizartinib + Luminespib; first compound 0.01 µM): 0.455 | relative viability (Quizartinib + Luminespib; first compound 0.03162 µM): 0.57 | relative viability (Quizartinib + Luminespib; first compound 0.1 µM): 0.408 | relative viability (Quizartinib + Foretinib; first compound 0.001 µM): 0.694 | relative viability (Quizartinib + Foretinib; first compound 0.003162 µM): 0.884 | relative viability (Quizartinib + Foretinib; first compound 0.01 µM): 0.831 | relative viability (Quizartinib + Foretinib; first compound 0.03162 µM): 0.844 | relative viability (Quizartinib + Foretinib; first compound 0.1 µM): 0.859 | relative viability (Quizartinib + OSI-027; first compound 0.001 µM): 0.457 | relative viability (Quizartinib + OSI-027; first compound 0.003162 µM): 0.419 | relative viability (Quizartinib + OSI-027; first compound 0.01 µM): 0.41 | relative viability (Quizartinib + OSI-027; first compound 0.03162 µM): 0.383 | relative viability (Quizartinib + OSI-027; first compound 0.1 µM): 0.412 | relative viability (Quizartinib + Tozasertib; first compound 0.001 µM): 0.392 | relative viability (Quizartinib + Tozasertib; first compound 0.003162 µM): 0.469 | relative viability (Quizartinib + Tozasertib; first compound 0.01 µM): 0.449 | relative viability (Quizartinib + Tozasertib; first compound 0.03162 µM): 0.441 | relative viability (Quizartinib + Tozasertib; first compound 0.1 µM): 0.511 | relative viability (Quizartinib + Dasatinib; first compound 0.001 µM): 0.502 | relative viability (Quizartinib + Dasatinib; first compound 0.003162 µM): 0.627 | relative viability (Quizartinib + Dasatinib; first compound 0.01 µM): 0.507 | relative viability (Quizartinib + Dasatinib; first compound 0.03162 µM): 0.623 | relative viability (Quizartinib + Dasatinib; first compound 0.1 µM): 0.598 | relative viability (Quizartinib + Phenformin; first compound 0.001 µM): 0.455 | relative viability (Quizartinib + Phenformin; first compound 0.003162 µM): 0.645 | relative viability (Quizartinib + Phenformin; first compound 0.01 µM): 0.599 | relative viability (Quizartinib + Phenformin; first compound 0.03162 µM): 0.595 | relative viability (Quizartinib + Phenformin; first compound 0.1 µM): 0.634 | relative viability (YM155 + Luminespib; first compound 0.002 µM): 0.43 | relative viability (YM155 + Luminespib; first compound 0.006325 µM): 0.464 | relative viability (YM155 + Luminespib; first compound 0.02 µM): 0.458 | relative viability (YM155 + Luminespib; first compound 0.06325 µM): 0.497 | relative viability (YM155 + Foretinib; first compound 0.002 µM): 0.89 | relative viability (YM155 + Foretinib; first compound 0.006325 µM): 0.865 | relative viability (YM155 + Foretinib; first compound 0.02 µM): 0.987 | relative viability (YM155 + Foretinib; first compound 0.06325 µM): 0.872 | relative viability (YM155 + OSI-027; first compound 0.002 µM): 0.469 | relative viability (YM155 + OSI-027; first compound 0.006325 µM): 0.456 | relative viability (YM155 + OSI-027; first compound 0.02 µM): 0.471 | relative viability (YM155 + OSI-027; first compound 0.06325 µM): 0.701 | relative viability (YM155 + Tozasertib; first compound 0.002 µM): 0.434 | relative viability (YM155 + Tozasertib; first compound 0.006325 µM): 0.461 | relative viability (YM155 + Tozasertib; first compound 0.02 µM): 0.431 | relative viability (YM155 + Tozasertib; first compound 0.06325 µM): 0.425 | relative viability (YM155 + Dasatinib; first compound 0.002 µM): 0.547 | relative viability (YM155 + Dasatinib; first compound 0.006325 µM): 0.529 | relative viability (YM155 + Dasatinib; first compound 0.02 µM): 0.599 | relative viability (YM155 + Dasatinib; first compound 0.06325 µM): 0.555 | relative viability (YM155 + Phenformin; first compound 0.002 µM): 0.599 | relative viability (YM155 + Phenformin; first compound 0.006325 µM): 0.6 | relative viability (YM155 + Phenformin; first compound 0.02 µM): 0.643 | relative viability (YM155 + Phenformin; first compound 0.06325 µM): 0.604
